Among the test systems are MDA-N; EKVX; NCI-H522; M14; UO-31; UACC-62; HOP-62; HCT-116; SN12C; MDA-MB-231; HT-29; SF-539; TK-10; PC-3; OVCAR-8; SR; HCC 2998; NCI-H23; NCI-H460.
Holding throughout (experiment): growth of human tumour cells (NCI), 48 h

We go through ten molecules from ChEMBL document CHEMBL1201862, “PubChem BioAssay data set” (2004).

Molecules are shown by their SMILES.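 Test compounds were applied to cells in 96-well plates for 48 hours at 5 doses. At the GI50, growth is halved.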 Active and inactive are the calls of the source. Cut-off read from the data, not from the text of the source: active = GI50 up to about 1.1 µM and inactive = higher.

Regarding `CC(=O)Nc1ccc(-c2nc3cc(Cl)ccc3o2)cc1`, the GI50 with MDA-N, in the assay on EKVX, in the assay on NCI-H522, with M14, in the assay on UO-31 and in the assay with UACC-62 was > 50 µM (inactive) throughout. Further, the GI50 in the assay with HOP-62, in the assay with HCT-116, in the assay with SN12C, in the assay on MDA-MB-231, with HT-29 and in the assay on SF-539 was > 50 µM (inactive) each time. Moreover, the GI50 in the assay with TK-10 was > 50 µM (inactive); in the assay on PC-3 it was > 50 µM (inactive); in the assay on OVCAR-8, > 50 µM (inactive); with SR, > 50 µM (inactive); in the assay on HCC 2998, 40.1 µM (inactive); in the assay with NCI-H23 it was > 50 µM (inactive). Moreover, the GI50 with NCI-H460 was > 50 µM (inactive).
Turning to `O=C(C=P(c1ccccc1)(c1ccccc1)c1ccccc1)c1ccc(-c2cccc([N+](=O)[O-])c2)s1`, the GI50 with MDA-N is 29.7 µM (inactive); with EKVX it was 57.7 µM (inactive); in the assay with NCI-H522, 23.7 µM (inactive); with M14, > 100 µM (inactive); with UO-31 it was 48.2 µM (inactive); with UACC-62 it was 59 µM (inactive). The GI50 with HOP-62 was > 100 µM (inactive); in the assay with HCT-116, 61.8 µM (inactive); in the assay with SN12C it was 68.7 µM (inactive); in the assay with MDA-MB-231, > 100 µM (inactive); in the assay on HT-29, 29.6 µM (inactive); with SF-539, 63.4 µM (inactive). Moreover, the GI50 in the assay with TK-10 is 83.8 µM (inactive); in the assay with PC-3 it was 24.9 µM (inactive); with OVCAR-8 it was 47.3 µM (inactive); with SR it was 42.5 µM (inactive); with HCC 2998, 51.1 µM (inactive); in the assay on NCI-H23, 77.6 µM (inactive). In addition, the GI50 in the assay on NCI-H460 was 39.4 µM (inactive).
Take `COC1=CC(=O)c2c(CCNC(=O)OCc3ccccc3)n[nH]c2C1=O`: the GI50 in the assay with MDA-N was 2.24 µM (inactive); in the assay on EKVX it was 17.8 µM (inactive); in the assay with NCI-H522, 7.78 µM (inactive); with M14, 12.6 µM (inactive); with UO-31, 14.6 µM (inactive); in the assay on UACC-62, 5.79 µM (inactive). For the same molecule, the GI50 in the assay on HOP-62 is 22.3 µM (inactive); in the assay on HCT-116, 12.4 µM (inactive); in the assay with SN12C, 13.8 µM (inactive); in the assay with MDA-MB-231, 17.3 µM (inactive); with HT-29 it was 22.8 µM (inactive); with SF-539, 17.9 µM (inactive). Further, the GI50 was 34 µM (inactive) with TK-10; 30.4 µM (inactive) in the assay on PC-3; 23.1 µM (inactive) in the assay on OVCAR-8; 19.1 µM (inactive) in the assay on SR; 19 µM (inactive) in the assay on HCC 2998; 4.01 µM (inactive) with NCI-H23. Also, in the assay on NCI-H460, the GI50 is 15.3 µM (inactive).
As to `COc1ccc(Nc2n[nH]c(NS(=O)(=O)c3cc(C)c(Cl)cc3S)n2)cc1`, the GI50 in the assay on MDA-N, in the assay on EKVX, in the assay on NCI-H522, in the assay on M14, in the assay on UO-31 and in the assay on UACC-62 was > 100 µM (inactive) in each case. Also, the GI50 in the assay on HOP-62, with HCT-116, in the assay on SN12C, with MDA-MB-231, with HT-29 and with SF-539 was > 100 µM (inactive) throughout. The GI50 in the assay on TK-10, in the assay on PC-3, in the assay with OVCAR-8, in the assay on SR, in the assay with HCC 2998 and in the assay with NCI-H23 was > 100 µM (inactive) each time. Moreover, the GI50 in the assay with NCI-H460 is > 100 µM (inactive).
With `CN(CCNC(=O)c1c[nH]c2c1ccc1ccccc12)CCNC(=O)c1c[nH]c2c1ccc1ccccc12`, the GI50 in the assay with MDA-N was 2.31 µM (inactive); in the assay on EKVX, 3.62 µM (inactive); in the assay with NCI-H522, 1.89 µM (inactive); in the assay on M14, 1.84 µM (inactive); in the assay with UO-31, 1.38 µM (inactive); in the assay with UACC-62, 1.75 µM (inactive). Further, the GI50 with HOP-62 was 2.36 µM (inactive); in the assay on HCT-116 it was 1.76 µM (inactive); in the assay on SN12C, 3.39 µM (inactive); in the assay with MDA-MB-231, 1.59 µM (inactive); with HT-29 it was 1.87 µM (inactive); in the assay with SF-539, 1.15 µM (inactive). Further, the GI50 is 3.21 µM (inactive) in the assay with TK-10; 2.26 µM (inactive) with PC-3; 1.93 µM (inactive) with OVCAR-8; 2.08 µM (inactive) in the assay with SR; 1.41 µM (inactive) with HCC 2998; 4.39 µM (inactive) in the assay with NCI-H23. In addition, the GI50 in the assay with NCI-H460 was 1.96 µM (inactive).
For the molecule `Cc1ccnc(NS(=O)(=O)c2ccc(NC(=O)c3ccc4nc5ccccc5c(Nc5ccc(S(=O)(=O)Nc6nccc(C)n6)cc5)c4c3)cc2)n1`, the GI50 in the assay on MDA-N was 62.4 µM (inactive); in the assay with EKVX, > 100 µM (inactive); in the assay with NCI-H522, 39.4 µM (inactive); in the assay with M14, > 100 µM (inactive); with UO-31, > 100 µM (inactive); with UACC-62, 38.3 µM (inactive). Also, the GI50 was > 100 µM (inactive) in the assay with HOP-62; 59 µM (inactive) in the assay with HCT-116; 60.3 µM (inactive) in the assay on SN12C; 40.7 µM (inactive) with MDA-MB-231; > 100 µM (inactive) in the assay with HT-29; 52 µM (inactive) in the assay on SF-539. In addition, the GI50 in the assay with TK-10 was > 100 µM (inactive); in the assay on PC-3, > 100 µM (inactive); with OVCAR-8 it was > 100 µM (inactive); with SR it was 21.9 µM (inactive); in the assay on HCC 2998, 37.2 µM (inactive); with NCI-H23, > 100 µM (inactive). In the assay with NCI-H460, the GI50 was 65.3 µM (inactive).
`Cc1ccc2c(n1)C(=O)c1cc(C)c(C)cc1C2=O`: the GI50 was > 100 µM (inactive) in the assay on MDA-N; 50.8 µM (inactive) in the assay on EKVX; 20.6 µM (inactive) in the assay on NCI-H522; > 100 µM (inactive) in the assay on M14; 57.8 µM (inactive) in the assay with UO-31; 45.9 µM (inactive) in the assay with UACC-62. Moreover, the GI50 was > 100 µM (inactive) with HOP-62; 47.6 µM (inactive) with HCT-116; 56.9 µM (inactive) with SN12C; 45.6 µM (inactive) with MDA-MB-231; 36.9 µM (inactive) with HT-29; > 100 µM (inactive) in the assay on SF-539. Besides, the GI50 is > 100 µM (inactive) in the assay on TK-10; > 100 µM (inactive) in the assay with PC-3; 54.3 µM (inactive) in the assay with OVCAR-8; 30.2 µM (inactive) in the assay on SR; 98.2 µM (inactive) with HCC 2998; > 100 µM (inactive) in the assay with NCI-H23. The GI50 in the assay with NCI-H460 was 10.6 µM (inactive).
On to `COc1cc2c3c(cc(Cl)nc3c1OC)C(O)(CC(=O)c1ccccc1)C(=O)N2` (stereo not given), for which the GI50 in the assay on MDA-N is 1.93 µM (inactive); in the assay on EKVX it was 5.14 µM (inactive); in the assay on NCI-H522, 2.89 µM (inactive); in the assay on M14, 16.4 µM (inactive); in the assay on UO-31 it was 13.3 µM (inactive); with UACC-62 it was 6.18 µM (inactive). Moreover, the GI50 was 19.2 µM (inactive) in the assay on HOP-62; 4.69 µM (inactive) in the assay on HCT-116; 6.79 µM (inactive) in the assay on SN12C; 13.8 µM (inactive) in the assay on MDA-MB-231; 21.7 µM (inactive) with HT-29; 0.995 µM (active) in the assay with SF-539. For the same molecule, the GI50 in the assay with TK-10 is 18.1 µM (inactive); with PC-3 it was 15.3 µM (inactive); in the assay on OVCAR-8 it was 14 µM (inactive); in the assay on SR, 4.65 µM (inactive); in the assay with HCC 2998, 18.5 µM (inactive); with NCI-H23, 17 µM (inactive). Besides, the GI50 in the assay with NCI-H460 was 21 µM (inactive).
As for `O=C(C/C(=N/O)c1cc(-c2ccccc2)no1)c1ccccc1`, the GI50 in the assay on MDA-N is > 100 µM (inactive); with EKVX, 33.8 µM (inactive); with NCI-H522 it was 18.7 µM (inactive); with M14 it was 85.3 µM (inactive); in the assay with UO-31, 26.4 µM (inactive); in the assay with UACC-62, 31 µM (inactive). Besides, the GI50 is 23.8 µM (inactive) with HOP-62; 20.4 µM (inactive) with HCT-116; 38.7 µM (inactive) with SN12C; 21.4 µM (inactive) in the assay with MDA-MB-231; > 100 µM (inactive) in the assay on HT-29; 19.3 µM (inactive) in the assay on SF-539. The GI50 is 35.1 µM (inactive) in the assay on TK-10; 77.6 µM (inactive) in the assay with PC-3; 21.7 µM (inactive) in the assay with OVCAR-8; 13.6 µM (inactive) in the assay with SR; > 100 µM (inactive) with HCC 2998; 20.9 µM (inactive) with NCI-H23. Also, the GI50 in the assay on NCI-H460 is 39.6 µM (inactive).
For the molecule `O=C1CC(NCCCNC2CC(=O)c3c(Br)sc(Br)c32)c2c(Br)sc(Br)c21` (stereo not given), the GI50 with MDA-N is 1.79 µM (inactive); with EKVX, 2.22 µM (inactive); in the assay on NCI-H522, 1.25 µM (inactive); in the assay with M14, 2 µM (inactive); in the assay on UO-31, 1.42 µM (inactive); in the assay on UACC-62, 1.62 µM (inactive). Also, the GI50 with HOP-62 was 2.84 µM (inactive); in the assay on HCT-116, 1.36 µM (inactive); with SN12C, 1.99 µM (inactive); with MDA-MB-231, 2.19 µM (inactive); in the assay with HT-29, 2.28 µM (inactive); with SF-539, 2.47 µM (inactive). Further, the GI50 in the assay on TK-10 was 2.06 µM (inactive); with PC-3 it was 1.57 µM (inactive); with OVCAR-8 it was 1.66 µM (inactive); with SR it was 0.798 µM (active); in the assay with HCC 2998, 1.99 µM (inactive); in the assay with NCI-H23, 1.83 µM (inactive). The GI50 in the assay on NCI-H460 was 3.62 µM (inactive).
